Experimental data as given in publication PMC4467156, “A new chemical inhibitor of angiogenesis and tumorigenesis that targets the VEGF signaling pathway upstream of Ras” (Oncotarget, 2015).

Columns and labels:
HMVECd cells [1] = assay: Scratch wound closure assay, primary HMVECd; type: cell-based; conditions: Homo sapiens, Endothelial cell; primary dermal microvascular endothelial cells, 10% FCS
Experimental: Figure 3 Endothelial cell-specific inhibition of wound closure by COB223 The dose-dependent effect of COB223 on cellular wound closure was measured as described in Material and Methods on either HMVECd or on 3T3 cells. The results are expressed as the percentage of wound closure (with closure observed in the presence of 10% FCS taken as 100%) : mean values +/− SD from three experiments.
(§1) Confluent cell monolayers were wounded with a plastic pipet tip, washed gently with phosphate buffer saline (PBS) and treated with complete media containing molecules, as indicated. Cells were placed at 37°C into the incubator and photographed at indicated times. Quantitation of closure of the monolayer was performed using the NIH Image J program (http://rsbweb.nih.gov/ij/). Results are expressed as percentage of wound closure at t = 24 h as compared to the initial wound at t = 0 h.

HUVEC cells [2] = assay: Scratch assay on HUVEC with or without mitomycin C; type: cell-based, human; conditions: HUVEC, 25 μM COB223, mitomycin C 2 μg/mL pretreatment, 24 h and 48 h
Experimental: as §1, with “0 h. […]” for “0 h.”
www.impactjournals.com/oncotarget/ Oncotarget, Supplementary Materials 2015 […]
Figure S1: Effect of COB223 on endothelial cell migration. (A) Scratch assay: Confluent HUVEC cells were pretreated for 24 h without (CTL) or with 2 μg/mL of mitomycin C before a wound was made in the cell monolayer. After wounding, cells were incubated at 37°C in the absence or the presence of 25 μM COB223. Wound closure was measured after 24 h and 48 h of incubation as described in Material and Methods. […]
(B) Boyden chamber assay: The technique is described in Material and Methods. We measured the passage of fluorescently labeled HUVEC cells through a 3 μm-porous membrane in response to fetal calf serum used as a chemo-attractant. […] The Figure represents the mean fluorescence ± SD of duplicate determinations after 24 h or 48h of incubation from two independent experiments. […]

HMVECd cells [3] = assay: Cell viability WST-1, HMVECd; type: cell-based, human; conditions: confluent HMVECd, 24 h at 37°C
Experimental: Once they had reached confluency, cells were kept for 24 hours in medium supplemented with 0.5% FCS (LLC/2 and 3T3 cells) or 2.5% FCS (HUVEC and HMVEC-d cells), in the presence of COB223 at different concentrations. WST-1 assay (Roche Diagnostic, Meylan, France) was then performed according to the manufacturer's instructions.

HUVEC cells [4] = assay: Binding of 125I-VEGF-A121 to HUVEC cells; set-up: species or system human; conditions: data not shown
FGFR1 = FGFR1 (Homo sapiens, UniProt P11362); assay: In vitro kinase assay FGFR1; type: biochemical; conditions: concentrations up to 50 μM
Sequence of FGFR1 (P11362 22-822, species assumed): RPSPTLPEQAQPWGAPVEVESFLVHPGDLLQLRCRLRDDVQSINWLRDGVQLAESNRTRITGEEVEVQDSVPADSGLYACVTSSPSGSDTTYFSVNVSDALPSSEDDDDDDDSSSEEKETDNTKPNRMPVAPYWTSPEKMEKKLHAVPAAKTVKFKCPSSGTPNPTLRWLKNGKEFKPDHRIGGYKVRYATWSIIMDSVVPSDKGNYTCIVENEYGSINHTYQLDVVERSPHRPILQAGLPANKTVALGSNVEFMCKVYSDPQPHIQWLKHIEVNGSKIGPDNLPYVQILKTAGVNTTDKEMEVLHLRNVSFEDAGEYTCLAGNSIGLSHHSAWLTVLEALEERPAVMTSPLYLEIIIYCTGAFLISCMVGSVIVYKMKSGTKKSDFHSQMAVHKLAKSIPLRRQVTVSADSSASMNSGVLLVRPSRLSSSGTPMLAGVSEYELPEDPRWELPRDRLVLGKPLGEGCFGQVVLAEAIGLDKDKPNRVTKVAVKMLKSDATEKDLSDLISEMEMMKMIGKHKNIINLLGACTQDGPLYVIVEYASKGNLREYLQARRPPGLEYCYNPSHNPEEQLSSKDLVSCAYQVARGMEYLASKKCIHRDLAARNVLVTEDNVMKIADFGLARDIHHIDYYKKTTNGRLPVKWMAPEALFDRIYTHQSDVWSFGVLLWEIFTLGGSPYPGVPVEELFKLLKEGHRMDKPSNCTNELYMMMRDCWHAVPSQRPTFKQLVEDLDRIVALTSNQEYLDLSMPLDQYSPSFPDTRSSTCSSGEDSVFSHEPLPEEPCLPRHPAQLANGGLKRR
Experimental: (§2) We first wondered whether COB223 required to be internalized to exert its biological effect. For this, we synthesized a covalent complex between BSA and COB223 and purified it. […] In vitro kinase assays were performed with a panel of purified protein-kinases involved in mitogenic signaling, including VEGFR2, FGFR1, FGFR2, PDGFRß, Met, Raf, MEK1, ERK1, ERK2, PKCα, PKCβI, PKCβII, PKCζ as indicated in Table 2. […] We then analyzed the effect of COB223 on VEGF-induced phosphorylations of VEGFR2, MEK and ERK1/2 (Figure 9). […] (Figure 9A, 9B). […] It was also specific of the p42/p44 MAP kinase pathway as activation of p38 MAP kinase phosphorylation in HUVEC cells by VEGF or serum was unaffected by COB223 (data not shown). The activation of src phosphorylation by VEGF in HUVECs was also unaffected by COB223 (data not shown).

MEK1 = MEK1 (Homo sapiens, UniProt Q02750); assay: In vitro kinase assay MEK1; type: biochemical; conditions: concentrations up to 50 μM
Sequence of MEK1 (Q02750 whole entry, species assumed): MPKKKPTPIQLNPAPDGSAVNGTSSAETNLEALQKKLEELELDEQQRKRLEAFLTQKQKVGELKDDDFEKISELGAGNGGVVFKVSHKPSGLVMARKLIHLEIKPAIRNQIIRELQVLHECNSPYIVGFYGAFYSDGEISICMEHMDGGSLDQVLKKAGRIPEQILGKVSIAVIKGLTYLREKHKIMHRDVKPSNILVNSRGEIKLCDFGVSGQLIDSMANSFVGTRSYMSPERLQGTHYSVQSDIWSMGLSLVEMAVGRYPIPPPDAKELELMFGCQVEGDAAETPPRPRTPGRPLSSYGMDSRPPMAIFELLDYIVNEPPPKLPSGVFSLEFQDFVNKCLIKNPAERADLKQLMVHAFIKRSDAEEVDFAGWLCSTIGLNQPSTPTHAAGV
Experimental: as §2

ERK1 = ERK1 (Homo sapiens, UniProt P27361); assay: In vitro kinase assay ERK1; type: biochemical; conditions: concentrations up to 50 μM
Sequence of ERK1 (P27361 whole entry, species assumed): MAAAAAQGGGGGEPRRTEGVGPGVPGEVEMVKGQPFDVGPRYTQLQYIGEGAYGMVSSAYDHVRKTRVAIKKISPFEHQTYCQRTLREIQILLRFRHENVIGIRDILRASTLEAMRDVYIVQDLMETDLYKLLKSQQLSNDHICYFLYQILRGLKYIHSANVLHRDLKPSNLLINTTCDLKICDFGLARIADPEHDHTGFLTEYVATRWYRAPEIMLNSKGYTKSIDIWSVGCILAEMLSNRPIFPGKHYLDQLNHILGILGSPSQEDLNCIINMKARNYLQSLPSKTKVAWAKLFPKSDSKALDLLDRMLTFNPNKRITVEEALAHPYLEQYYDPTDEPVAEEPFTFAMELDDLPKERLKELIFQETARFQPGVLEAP
Experimental: as §2

ERK2 = ERK2 (Homo sapiens, UniProt P28482); assay: In vitro kinase assay ERK2; type: biochemical; conditions: concentrations up to 50 μM
Sequence of ERK2 (P28482 whole entry, species assumed): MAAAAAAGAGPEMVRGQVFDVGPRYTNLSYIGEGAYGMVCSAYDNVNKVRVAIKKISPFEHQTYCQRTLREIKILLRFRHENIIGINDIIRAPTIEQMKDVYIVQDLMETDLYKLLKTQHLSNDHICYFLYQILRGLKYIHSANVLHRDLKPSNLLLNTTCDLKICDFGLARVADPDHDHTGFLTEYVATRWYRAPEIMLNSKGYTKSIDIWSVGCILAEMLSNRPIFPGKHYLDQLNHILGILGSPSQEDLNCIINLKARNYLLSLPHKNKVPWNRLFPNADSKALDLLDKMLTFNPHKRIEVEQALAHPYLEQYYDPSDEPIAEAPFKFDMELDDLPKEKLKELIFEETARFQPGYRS
Experimental: as §2

PKCβII = PKCβII (Homo sapiens, UniProt P05771); assay: In vitro kinase assay PKCβII; type: biochemical; conditions: concentrations up to 50 μM
Sequence of PKCβII (P05771 1-673 isoform P05771-2): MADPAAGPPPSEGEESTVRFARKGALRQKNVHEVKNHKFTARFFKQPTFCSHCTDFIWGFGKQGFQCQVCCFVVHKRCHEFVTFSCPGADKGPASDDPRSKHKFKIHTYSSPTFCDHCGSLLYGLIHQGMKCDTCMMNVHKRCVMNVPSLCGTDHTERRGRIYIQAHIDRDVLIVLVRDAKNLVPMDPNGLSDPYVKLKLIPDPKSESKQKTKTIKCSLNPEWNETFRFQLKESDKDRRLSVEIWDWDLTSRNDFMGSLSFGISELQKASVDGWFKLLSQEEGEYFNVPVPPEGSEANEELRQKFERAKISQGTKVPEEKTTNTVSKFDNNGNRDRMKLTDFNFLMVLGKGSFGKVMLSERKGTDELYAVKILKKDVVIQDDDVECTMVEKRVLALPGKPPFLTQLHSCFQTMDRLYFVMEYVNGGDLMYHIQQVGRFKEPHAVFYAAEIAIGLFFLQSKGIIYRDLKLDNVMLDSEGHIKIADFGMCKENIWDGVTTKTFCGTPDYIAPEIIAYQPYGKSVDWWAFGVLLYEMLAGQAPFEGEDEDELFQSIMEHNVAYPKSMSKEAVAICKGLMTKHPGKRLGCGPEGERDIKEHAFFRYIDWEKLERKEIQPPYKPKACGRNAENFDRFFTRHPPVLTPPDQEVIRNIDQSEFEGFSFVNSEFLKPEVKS
Experimental: as §2

MEK phosphorylation = assay: Western blot, MEK phosphorylation in HUVEC; type: cell-based, human; conditions: 10 ng/mL VEGF-A 15 min, 25 μM COB223
Experimental: Figure 9 Effect of COB223 on growth factor-induced VEGF-R2, MEK and ERK phosphorylations (A) Serum-starved HUVEC cells were incubated for 15 min in the presence of either 10 ng/mL VEGF-A or 20 ng/mL FGF-2 and in the absence or the presence of 25 μM COB223. The phosphorylations of VEGFR2 on tyrosine 1175 or tyrosine 1214, of MEK and ERK1/2 were then analyzed by Western blot analysis of the cell lysates as described in Material and Methods. Western blots for total VEGFR2, MEK and ERK1/2 were used as loading controls. The blots shown in Figure 9A were obtained in one representative experiment. (B) The hybridization signals observed in 5 similar but independent experiments were quantitated and the ratios between phospho-VEGFR2(Y1175) or (Y1214) and VEGFR2 signals were normalized to the value observed in the absence of COB223. (C) The hybridization signals observed in 5 similar but independent experiments were quantitated and the ratios between phospho-ERK1/2 and ERK1/2 and between phospho-MEK and MEK were normalized to the values observed in the absence of COB223. Additional experiments performed with 10% fetal calf serum (FCS) as a mitogen were included in this analysis. * : p < 0.05; ** : p < 0.01
Serum-starved HUVEC cells were incubated for 15 min in the presence of either 10 ng/mL VEGF-A or 20 ng/mL FGF-2 and in the absence or the presence of indicated concentration of COB223. […]

CN(C)c1cccc2c(S(=O)(=O)NCCCN3CCN(CCCNC(=O)OC(C)(C)C)CC3)cccc12 [COB223, tert-Butyl 3-(4-(3-(5-(dimethylamino)naphthalene-1-sulfonamido)propyl)piperazin-1-yl) propylcarbamate]
EC50 (HMVECd cells [1]): 25 µM
endothelial cell wound closure in the presence of mitomycin C (HUVEC cells [2]): still inhibited
cytotoxic concentrations (HMVECd cells [3]): > 50 µM
binding of 125I-VEGF-A121 to HUVEC cells (HUVEC cells [4]): unaffected
kinase inhibition (FGFR1): None of them was inhibited
kinase inhibition (MEK1): None of them was inhibited
kinase inhibition (ERK1): None of them was inhibited
kinase inhibition (ERK2): None of them was inhibited
kinase inhibition (PKCβII): None of them was inhibited
VEGF-induced phosphorylation of MEK (MEK phosphorylation): significantly inhibited
